Data set [1] relates to intestinal tumors in F344 Pirc rats. Put plainly: Effect of celecoxib on intestinal tumor multiplicity in F344 Pirc rats (screening for carcinogenesis inhibitory activity). The format is in vivo, rat. The note with it: for Average number of tumors in large intestine / Average number of tumors in small intestine / Average total number of tumors: celecoxib 1200 ppm diet from about 40 days of age, necropsy at about 22 weeks, n=9. As to the method: Shown in Table 5 is an example of the use of a Pirc rat for screening a compound for carcinogenesis inhibitory activity. The effect of celecoxib on intestinal tumor multiplicity in F344 Pirc rats was tested. At about 40 days of age, Pirc rats backcrossed with F344-Tac and F334 control rats were fed celecoxib at 1200 ppm diet. The rats were killed at about 22 weeks of age (about 150-160 days of age). Necropsy was performed to identify 1-2 mm tumors in the intestines.

The test system of data set [2] is intestinal tumors in F344-Pirc rats. Nature of the data set: Tumor multiplicities in F344-Pirc rats after somatic ENU treatment. The format is in vivo, rat. The note with it: ENU treated, male, age 7 mo. As to the method:
Somatic ENU treatment. ENU was dissolved in 95% EtOH and measured with a spectrophotometer at […] to obtain a final concentration of 1 mg/ml. Either the ENU solution or 95% EtOH was injected intraperitoneally into 13-20 day old rats at 18 or 40 mg/kg of body mass. Treated animals were isolated in a laminar flow hood for at least three days before being returned to normal housing.
Tumor multiplicities were determined for both adenomas and microadenomas (neoplasms less than 0.5 mm in diameter). A significant dependence on gender was observed, with males developing more of both types of tumor in all regions of the intestinal tract. There was also a monotonic increase in tumor multiplicity with age, reaching an average of 14 colonic adenomas in males and 9 in females over eight months of age (Tables 3 and 4).
Shown in Table 3 are the tumor multiplicities in Pirc rats. Colonic microadenoma multiplicities could not be accurately measured without histopathological confirmation and were excluded from these analyses. Neoplasms less than 0.5 mm in size were classified as microadenomas.

Setting [3] is: Female Pirc rat, celecoxib 1200 ppm diet vs control diet.
Where [4] appears, read: Male Pirc rat, celecoxib 1200 ppm diet vs control diet.
[5] abbreviates: N=3, ENU intraperitoneally at 18 or 40 mg/kg in 13-20 day old rats.

Here are results for two molecules from patent US7897834B2, “Mutation in the rat adenomatous polyposis coli gene within the human mutation hotspot region” (Wisconsin Alumni Research Foundation, priority 2005, dated 2011).

As to `Cc1ccc(-c2cc(C(F)(F)F)nn2-c2ccc(S(N)(=O)=O)cc2)cc1` [Celecoxib, celecoxib], in data set [1] (Female Pirc rat), the “Average number of tumors in large intestine” value amounted to 0.1, the “Average number of tumors in small intestine” value was found to be 0.9 and the “Average total number of tumors” value is on record as 1.0. In data set [1] (setting [3]), the “Relative reduction in number of tumors (large intestine)” value was determined as 93% and the “Relative reduction in number of tumors (total)” value is given as 50%. In addition, in data set [1] (Male Pirc rat), the “Average number of tumors in large intestine” value was determined as 1.2, the “Average number of tumors in small intestine” value turned out to be 1.3 and the “Average total number of tumors” value is on record as 2.6. Moreover, in data set [1] (setting [4]), the “Relative reduction in number of tumors (large intestine)” value is reported as 61%, the “Relative reduction in number of tumors (small intestine)” value is reported as 82% and the “Relative reduction in number of tumors (total)” value is on record as 76%.
In the case of `CCN(N=O)C(N)=O` [ENU, N-ethyl-N-nitrosourea], in data set [2] (setting [5]), the “Colonic polyps, mean ± SD” value stood at 79 ± 11 and the “Lesions in small intestine, mean ± SD: Adenomas” value is recorded as 57 ± 13. For the same molecule, the “Lesions in small intestine, mean ± SD: Microadenomas” value in data set [2] (N=3, neoplasms less than 0.5 mm) is recorded as 665 ± 103.
